Reference: patent publication US7939534B2, “Certain chemical entities, compositions, and methods” (Cytokinetics, Inc., priority 2006, dated 2011)
“And” between values parts separate entries of the source, which are not always exact repeats. Identical values can stand only once.

biological target: T1, chicken gizzard smooth muscle myosin subfragment-1 chemically crosslinked to either cardiac or skeletal actin (Gallus gallus, UniProt P10587); test: Dose dependent smooth muscle myosin ATPase modulation (pyruvate kinase/horseradish peroxidase/pyruvate oxidase-coupled ATPase assay); assay type: biochemical; details: read-out: IC50 Arithmetic Mean
T1 construct: chicken gizzard smooth muscle myosin subfragment-1; from tissue; host or cells: chicken gizzard
Method: In Vitro Model of Dose Dependent Smooth Muscle Myosin Atpase Modulation
Screening assays were performed using a pyruvate kinase and lactate dehydrogenase-coupled ATPase assay containing the following reagents: Potassium PIPES (50 mM ), MgCl2 (3 mM ), KCl (100 mM ), ATP (0.15 mM ), DTT (1 mM ), BSA (0.1 mg/ml), NADH (0.5 mM ), PEP (1.5 mM ), pyruvate kinase (4 U/ml), lactate dehydrogenase (8 U/ml), and antifoam (50 ppm) (concentrations expressed are final assay concentrations). The pH was adjusted to 6.80 at 22° C. by addition of potassium hydroxide. Lead optimization assays were performed with a more sensitive pyruvate kinase/horseradish peroxidase/pyruvate oxidase-coupled ATPase assay containing the following reagents: Potassium PIPES (12 mM ), MgCl2 (2 mM ), KCl (100 mM ), ATP (0.15 mM ), BSA (0.05 mg/ml), potassium phosphate (2 mM ), amplex red (0.1 mM ), PEP (0.1 mM ), pyruvate kinase (4 U/ml), horseradish peroxidase (0.5 U/ml), pyruvate oxidase (0.5 U/ml), and antifoam (50 ppm) (concentrations expressed are final assay concentrations). The pH was adjusted to 7.00 at 22° C. by addition of potassium hydroxide.
The protein components specific to this assay are chicken gizzard smooth muscle myosin subfragment-1 that has been chemically crosslinked to either cardiac or skeletal actin using an excess of 1-Ethyl-3-[3-dimethylaminopropyl]carbodiimide hydrochloride and N-hydroxysuccinimide. The exact concentration of the crosslinked smooth muscle myosin in the assay is determined empirically, by titration to achieve a desired rate of ATP hydrolysis. The concentration varies between protein preparations due to variations in the fraction of active molecules in each preparation.
Compound dose response assays are performed by first preparing a dilution series of test compound, each with an assay mixture containing potassium PIPES, MgCl2, KCl, ATP, BSA, potassium phosphate, amplex red, PEP, crosslinked smooth muscle actomyosin (subfragment-1), antifoam, and water. The assay is started by adding an equal volume of solution containing potassium Pipes, MgCl2, KCl, BSA, potassium phosphate, pyruvate kinase, horseradish peroxidase, pyruvate oxidase, antifoam, and water. ATP hydrolysis is monitored by measuring the fluorescence of amplex red (excitation at 480 nm, emission at 615 nm). The resulting dose response curve is fit by the 4 parameter equation y=Bottom+((Top−Bottom)/(1+((IC50/X)^Hill))). The IC50 is defined as the concentration at which ATPase activity is midway between the top and bottom of the dose response curve.

IC50	SMILES
1.06 µM	CNC(=O)CNC(=O)c1ccc(N2CCC(F)C2)nc1NCCc1cccc(F)c1 (stereo in doubt) [Compound 93, 2-[(6-((3S)-3-fluoropyrrolidinyl)-2-{[2-(3-fluorophenyl)ethyl]amino}(3-pyridyl))carbonylamino]-N-methylacetamide]
0.515 µM	O=C(NCc1cccnc1)c1ccc(N2CCCC(O)C2)nc1NCCc1cccc(F)c1 (stereo in doubt) [Compound 117, (6-((3S)-3-hydroxypiperidyl)-2-{[2-(3-fluorophenyl)ethyl]amino}(3-pyridyl))-N-(3-pyridylmethyl)carboxamide]
3.44 µM and 3.69 µM	CNC(=O)CNC(=O)c1ccc(N2CC[C@@H](O)C2)nc1NCCc1cccc(F)c1 [2-[(6-((3R)-3-hydroxypyrrolidinyl)-2-{[2-(3-fluorophenyl)ethyl]amino}(3-pyridyl))carbonylamino]-N-methylacetamide]
0.371 µM	O=C(NCc1cccnc1)c1ccc(N2CCCCC2)nc1NCCc1cccc(F)c1 [Compound 0, (2-{[2-(3-fluorophenyl)ethyl]amino}-6-piperidyl(3-pyridyl))-N-(3-pyridylmethyl)carboxamide]
3.77 µM	CC(=O)NC[C@@H]1CCN(c2ccc(C(=O)NCc3cccnc3)c(NCCc3cccc(F)c3)n2)C1 [Compound 1, N-{[(3S)-1-(6-{[2-(3-fluorophenyl)ethyl]amino}-5-[N-(3-pyridylmethyl)carbamoyl](2-pyridyl))pyrrolidin-3-yl]methyl}acetamide]
11.4 µM	NC(=O)CNC(=O)c1ccc(N2CC[C@@H](O)C2)nc1NCCc1cccc(F)c1 [Compound 2, (6-((3R)-3-hydroxypyrrolidinyl)-2-{[2-(3-fluorophenyl)ethyl]amino}(3-pyridyl))-N-(carbamoylmethyl)carboxamide]
71.3 µM	CN(C)C(=O)c1ccc(N2CC[C@@H](O)C2)nc1NCCc1cccc(F)c1 [Compound 4, (6-((3R)-3-hydroxypyrrolidinyl)-2-{[2-(3-fluorophenyl)ethyl]amino}(3-pyridyl))-N,N-dimethylcarboxamide]
1.46 µM	NC(=O)CNC(=O)c1ccc(N2CCCC2)nc1NCCc1cccc(F)c1 [Compound 5, N-(carbamoylmethyl)(2-{[2-(3-fluorophenyl)ethyl]amino}-6-pyrrolidinyl(3-pyridyl))carboxamide]
0.311 µM	O=C(NCc1cccnc1)c1ccc(N2CC[C@@H](CO)C2)nc1NCCc1cccc(F)c1 [Compound 6, (6-[(3R)-3-(hydroxymethyl)pyrrolidinyl]-2-{[2-(3-fluorophenyl)ethyl]amino}(3-pyridyl))-N-(3-pyridylmethyl)carboxamide]
64.8 µM	CNC[C@@H]1CCN(c2ccc(C(=O)NCc3cccnc3)c(NCCc3cccc(F)c3)n2)C1 [Compound 7, (6-{(3S)-3-[(methylamino)methyl]pyrrolidinyl}-2-{[2-(3-fluorophenyl)ethyl]amino}(3-pyridyl))-N-(3-pyridylmethyl)carboxamide]
47.6 µM	CC(=O)N(C)C[C@@H]1CCN(c2ccc(C(=O)NCc3cccnc3)c(NCCc3cccc(F)c3)n2)C1 [Compound 8, N-{[(3R)-1-(6-{[2-(3-fluorophenyl)ethyl]amino}-5-[N-(3-pyridylmethyl)carbamoyl](2-pyridyl))pyrrolidin-3-yl]methyl}-N-methylacetamide]
75.1 µM	CN(C)C[C@@H]1CCN(c2ccc(C(=O)NCc3cccnc3)c(NCCc3cccc(F)c3)n2)C1 [Compound 9, (6-{(3S)-3-[(dimethylamino)methyl]pyrrolidinyl}-2-{[2-(3-fluorophenyl)ethyl]amino}(3-pyridyl))-N-(3-pyridylmethyl)carboxamide]
5.4 µM	O=C(NCc1cccnc1)c1ccc(N2CCCCC2=O)nc1NCCc1cccc(F)c1 [Compound 10, (2-{[2-(3-fluorophenyl)ethyl]amino}-6-(2-oxopiperidyl)(3-pyridyl))-N-(3-pyridylmethyl)carboxamide]
16.9 µM	NC[C@@H]1CCN(c2ccc(C(=O)NCc3cccnc3)c(NCCc3cccc(F)c3)n2)C1 [Compound 11, (6-[(3S)-3-(aminomethyl)pyrrolidinyl]-2-{[2-(3-fluorophenyl)ethyl]amino}(3-pyridyl))-N-(3-pyridylmethyl)carboxamide]
0.243 µM	Nc1ccc(CNC(=O)c2ccc(N3CCCC3)nc2NCCc2cccc(F)c2)cn1 [Compound 12, N-[(6-amino(3-pyridyl))methyl](2-{[2-(3-fluorophenyl)ethyl]amino}-6-pyrrolidinyl(3-pyridyl))carboxamide]
1.59 µM	NC(=O)CCNC(=O)c1ccc(N2CCCC2)nc1NCCc1cccc(F)c1 [Compound 13, N-(2-carbamoylethyl)(2-{[2-(3-fluorophenyl)ethyl]amino}-6-pyrrolidinyl(3-pyridyl))carboxamide]
0.533 µM	O=C(NCc1cccnc1)c1ccc(N2CC[C@@H](O)C2)nc1NCCc1cccc(F)c1 [Compound 14, (6-((3R)-3-hydroxypyrrolidinyl)-2-{[2-(3-fluorophenyl)ethyl]amino}(3-pyridyl))-N-(3-pyridylmethyl)carboxamide]
4.56 µM	O=C(NCc1cccnc1)c1ccc(N2CCCC2=O)nc1NCCc1cccc(F)c1 [Compound 15, (2-{[2-(3-fluorophenyl)ethyl]amino}-6-(2-oxopyrrolidinyl)(3-pyridyl))-N-(3-pyridylmethyl)carboxamide]
0.131 µM	O=C(NCc1cccnc1)c1ccc(N2CCCC2)nc1NCCc1cccc(F)c1 [Compound 16, (2-{[2-(3-fluorophenyl)ethyl]amino}-6-pyrrolidinyl(3-pyridyl))-N-(3-pyridylmethyl)carboxamide]
15.9 µM	NC(=O)CCNC(=O)c1ccc(N2CC[C@@H](O)C2)nc1NCCc1cccc(F)c1 [Compound 17, (6-((3R)-3-hydroxypyrrolidinyl)-2-{[2-(3-fluorophenyl)ethyl]amino}(3-pyridyl))-N-(2-carbamoylethyl)carboxamide]
1.02 µM	O=C(NCc1cccnc1)c1ccc(N2CC[C@H](O)C2)nc1NCCc1cccc(F)c1 [Compound 18, (6-((3S)-3-hydroxypyrrolidinyl)-2-{[2-(3-fluorophenyl)ethyl]amino}(3-pyridyl))-N-(3-pyridylmethyl)carboxamide]
0.382 µM	O=C(NCc1cccnc1)c1ccc(N2CCC(CO)CC2)nc1NCCc1cccc(F)c1 [Compound 19, (2-{[2-(3-fluorophenyl)ethyl]amino}-6-[4-(hydroxymethyl)piperidyl](3-pyridyl))-N-(3-pyridylmethyl)carboxamide]
29.7 µM	O=C(NCc1cccnc1)c1ccc(N2CC(O)CCC2=O)nc1NCCc1cccc(F)c1 (centres unmarked) [Compound 20, (2-{[2-(3-fluorophenyl)ethyl]amino}-6-(5-hydroxy-2-oxopiperidyl)(3-pyridyl))-N-(3-pyridylmethyl)carboxamide]
6.97 µM	O=C1CN(c2ccc(C(=O)NCc3cccnc3)c(NCCc3cccc(F)c3)n2)CCN1 [Compound 21, (2-{[2-(3-fluorophenyl)ethyl]amino}-6-(3-oxopiperazinyl)(3-pyridyl))-N-(3-pyridylmethyl)carboxamide]
59.9 µM	CN1CCN(c2ccc(C(=O)NCc3cccnc3)c(NCCc3cccc(F)c3)n2)CC1 [Compound 22, (2-{[2-(3-fluorophenyl)ethyl]amino}-6-(4-methylpiperazinyl)(3-pyridyl))-N-(3-pyridylmethyl)carboxamide]
0.471 µM	O=C(NCc1cccnc1)c1ccc(N2CCC(CCO)CC2)nc1NCCc1cccc(F)c1 [Compound 23, (2-{[2-(3-fluorophenyl)ethyl]amino}-6-[4-(2-hydroxyethyl)piperidyl](3-pyridyl))-N-(3-pyridylmethyl)carboxamide]
59.8 µM	CC(C)(C)OC(=O)N1CCN(c2ccc(C(=O)NCc3cccnc3)c(NCCc3cccc(F)c3)n2)C(=O)C1 [Compound 24, tert-butyl 4-(6-{[2-(3-fluorophenyl)ethyl]amino}-5-[N-(3-pyridylmethyl)carbamoyl](2-pyridyl))-3-oxopiperazinecarboxylate]
70.8 µM	O=C(NCc1cccnc1)c1ccc(N2CCNCC2=O)nc1NCCc1cccc(F)c1 [Compound 25, (2-{[2-(3-fluorophenyl)ethyl]amino}-6-(2-oxopiperazinyl)(3-pyridyl))-N-(3-pyridylmethyl)carboxamide]
53.4 µM	CN(C)C(=O)c1ccc(N2CCCCC2=O)nc1NCCc1cccc(F)c1 [Compound 26, (2-{[2-(3-fluorophenyl)ethyl]amino}-6-(2-oxopiperidyl)(3-pyridyl))-N,N-dimethylcarboxamide]
